{"source": "patent US20210100247A1", "about": "“HARMFUL ORGANISM CONTROL METHOD AND HARMFUL ORGANISM CONTROL COMPOSITION” (priority 2018, published 2021)", "test_system": "Tetranychus urticae", "test": "whole plant or invertebrate", "details": "for Corrected Adult Insect Mortality Rate Measured Value: adults, 3 days after spraying; for Effectiveness Measured Value: next generation survivors, 10 days after spraying", "protocol": "Effecacy Confirmation Test on Tetranychus urticae\nEight or ten adult female Tetranychus urticae mites were inoculated on the kidney bean leaves placed in petri dishes on the day before treating with the chemical solutions.\nA flowable agent containing the compound A was diluted with a solution obtained by diluting Rabiden 3S 5,000 times in water to prepare a chemical solution A containing the compound A in which the concentration of the compound A is twice the concentration shown in Tables 1 to 4.\nA preparation product containing the compound B was diluted with a solution obtained by diluting Rabiden 3S 5,000 times in water to prepare a chemical solution B containing the compound B in which the concentration of the compound B is twice the concentration shown in Tables 1 to 4.\nTest number a: Tebufenpyrad: Pyranica EW (manufactured by Nippon Soda Co., Ltd.) Test numbers b and h: Hexythiazox: Nissolan wettable powder (manufactured by Nippon Soda Co., Ltd.) Test number c: Fenpyroximate: Danitron flowable (manufactured by Nippon Pesticides Co., Ltd.) Test number d: Propargite: Omite wettable powder (manufactured by Nippon Pesticides Co., Ltd.) Test number e: Tolfenpyrad: Hachi-Hachi flowable (manufactured by OAT Agrio) Test number f: Abamectin: Agrimec (manufactured by Syngenta Japan) Test number g: Etoxazole: Baroque flowable (manufactured by Kyoyu Agri co., Ltd.) Test number i: Thiodicarb: Lavin wettable powder 75 (manufactured by Bayer Crop Science) Test number j: Spinosad: Spinoace granule wettable powder (Kumiai Chemical Industry Co., Ltd.) Test number k: Isoxathion: Carphos emulsion (manufactured by Nippon Soda Co., Ltd.) Test number l: Acetamiprid: Mospilan water-soluble agent (manufactured by Nippon Soda Co., Ltd.) Test number m: Fipronil: Prince flowable (manufactured by BASF) Test number n: Tralomethrin: Scout flowable agent (manufactured by Nippon Soda Co., Ltd.) Test number o: BT agent (live spore of Bacillus thuringiensis and crystal toxin produced): Zentari granule wettable powder (manufactured by Kitako Chemical Industry Co., Ltd.) Test number p: Buprofezin: Applaud flowable (manufactured by Nippon Pesticides Co., Ltd.) Test number q: Cyromazine: Triggered liquid (manufactured by Syngenta Japan) Test number r: Tebufenozide: Romdan Flowable (manufactured by Nippon Soda Co., Ltd.) Test number s: Flubendiamide: Phoenix granule wettable powder (Nippon Agricultural Co., Ltd.) Test number t: Pyridalyl: pleo flowable (manufactured by Kyoto Agri) Test number u: Lufenuron: Match emulsion (manufactured by Syngenta Japan) Test number v: Flonicamid: Ulala DF (made by Ishihara Bioscience) Test number w: Chlorfenapyr: Kotetsu Flowable (Nippon Pesticides Co., Ltd.) Test number x: Indoxacarb: Tornado flowable (made by Kumiai Chemical Industry Co., Ltd.) Test number y: Diafenthiuron: Gamba wettable powder (manufactured by Syngenta Japan) Test number z: Thiocyclam: Ebisect wettable powder (manufactured by Mitsui Chemicals Agro) Test number aa: Emamectin-benzoate: Affirm emulsion (Syndienta Japan) Test number ab: Pyridaben: Sanmite wettable powder (manufactured by Nissan Chemical Co., Ltd.)\nA mixed solution obtained by mixing equal amounts of the chemical solution A and the chemical solution B was sprayed onto a petri dish containing kidney bean leaves inoculated with Tetranychus urticae mites at an amount of 2 mg per cm^2 using a rotary spray tower (AB mixed-component area).\nThe chemical solution A and the chemical solution B were each diluted 2-fold with a solution obtained by diluting Labiden 3S 5000 times in water to obtain a chemical solution A′ and a chemical solution B′.\nThe chemical solution A′ was sprayed onto another petri dish containing kidney bean leaves inoculated with Tetranychus urticae mites at an amount of 2 mg per cm^2 using a rotary spray tower (A single-component area).", "key": {"[1]": {"details": "Tetranychus urticae, in Phaseolus vulgaris, 240 h, read-out: Effectiveness Measured Value"}}, "note": "Values joined by “and” are separate entries in the source; they are usually repeats but may differ in a detail not shown here. Identical values can stand only once.", "data": [{"compound": "CCc1nn(C)c(C(=O)NCc2ccc(C(C)(C)C)cc2)c1Cl", "note": "[tebufenpyrad]", "values": [{"measurement": "pest or weed control at 100 µg/mL", "setting": "[1]", "result": 64, "unit": "%"}]}, {"compound": "CN(C)C1CSSSC1", "note": "[thiocyclam]", "values": [{"measurement": "pest or weed control at 500 µg/mL", "setting": "[1]", "result": 18, "unit": "%"}]}, {"compound": "FC(F)(F)c1ccc(OCCCOc2c(Cl)cc(OCC=C(Cl)Cl)cc2Cl)nc1", "note": "[pyridalyl]", "values": [{"measurement": "pest or weed control at 100 µg/mL", "setting": "[1]", "result": 11, "unit": "%"}]}, {"compound": "CCOP(=S)(OCC)Oc1cc(-c2ccccc2)on1", "note": "[isoxathion]", "values": [{"measurement": "pest or weed control at 500 µg/mL", "setting": "[1]", "result": 50, "unit": "%"}]}, {"compound": "spinosad", "values": [{"measurement": "Corrected Adult Insect Mortality Rate Measured Value", "setting": "single component 40 ppm", "result": 0, "unit": "%"}, {"measurement": "Effectiveness Measured Value", "setting": "single component 40 ppm", "result": 0, "unit": "%"}]}, {"compound": "CCOc1cc(C(C)(C)C)ccc1C1COC(c2c(F)cccc2F)=N1", "note": "(stereo not drawn) [etoxazole]", "values": [{"measurement": "pest or weed control at 1.6 µg/mL", "setting": "[1]", "result": 85, "unit": "%"}]}, {"compound": "CC(C)N1C(=O)N(c2ccccc2)CS/C1=N\\C(C)(C)C", "note": "[buprofezin]", "values": [{"measurement": "pest or weed control at 200 µg/mL", "setting": "[1]", "result": 17, "unit": "%"}]}, {"compound": "emamectin-benzoate", "values": [{"measurement": "Corrected Adult Insect Mortality Rate Measured Value", "setting": "single component 0.02 ppm", "result": 40, "unit": "%"}, {"measurement": "Effectiveness Measured Value", "setting": "single component 0.02 ppm", "result": 17, "unit": "%"}]}, {"compound": "Nc1nc(N)nc(NC2CC2)n1", "note": "[cyromazine]", "values": [{"measurement": "pest or weed control at 87 µg/mL", "setting": "[1]", "result": 8, "unit": "%"}]}, {"compound": "C[C@@H]1[C@@H](c2ccc(Cl)cc2)SC(=O)N1C(=O)NC1CCCCC1", "note": "[hexythiazox]", "values": [{"measurement": "pest or weed control at 1.6 µg/mL", "setting": "[1]", "result": 42, "unit": "%"}, {"measurement": "pest or weed control at 12.5 µg/mL", "setting": "[1]", "result": 90, "unit": "%"}]}, {"compound": "Cc1cc(C(F)(C(F)(F)F)C(F)(F)F)ccc1NC(=O)c1cccc(I)c1C(=O)NC(C)(C)CS(C)(=O)=O", "note": "[flubendiamide]", "values": [{"measurement": "pest or weed control at 100 µg/mL", "setting": "[1]", "result": 3, "unit": "%"}]}, {"compound": "C/C(=N\\C#N)N(C)Cc1ccc(Cl)nc1", "note": "[acetamiprid]", "values": [{"measurement": "pest or weed control at 100 µg/mL", "setting": "[1]", "result": 7, "unit": "%"}]}, {"compound": "CCOCn1c(-c2ccc(Cl)cc2)c(C#N)c(Br)c1C(F)(F)F", "note": "[chlorfenapyr]", "values": [{"measurement": "pest or weed control at 50 µg/mL", "setting": "[1]", "result": 46, "unit": "%"}]}, {"compound": "CCc1ccc(C(=O)NN(C(=O)c2cc(C)cc(C)c2)C(C)(C)C)cc1", "note": "[tebufenozide]", "values": [{"measurement": "pest or weed control at 200 µg/mL", "setting": "[1]", "result": 10, "unit": "%"}]}, {"compound": "O=C(NC(=O)c1c(F)cccc1F)Nc1cc(Cl)c(OC(F)(F)C(F)C(F)(F)F)cc1Cl", "note": "(stereo not drawn) [lufenuron]", "values": [{"measurement": "pest or weed control at 100 µg/mL", "setting": "[1]", "result": 14, "unit": "%"}]}, {"compound": "abamectin", "values": [{"measurement": "Corrected Adult Insect Mortality Rate Measured Value", "setting": "single component 0.017 ppm", "result": 0, "unit": "%"}, {"measurement": "Effectiveness Measured Value", "setting": "single component 0.017 ppm", "result": 11, "unit": "%"}]}, {"compound": "N#Cc1nn(-c2c(Cl)cc(C(F)(F)F)cc2Cl)c(N)c1[S+]([O-])C(F)(F)F", "note": "(stereo not drawn) [fipronil]", "values": [{"measurement": "pest or weed control at 22 µg/mL", "setting": "[1]", "result": 2, "unit": "%"}]}, {"compound": "CC1(C)[C@H](C(=O)O[C@H](C#N)c2cccc(Oc3ccccc3)c2)[C@@H]1C(Br)C(Br)(Br)Br", "note": "(stereo partly drawn) [tralomethrin]", "values": [{"measurement": "pest or weed control at 9.3 µg/mL", "setting": "[1]", "result": 1, "unit": "%"}]}, {"compound": "C#CCOS(=O)OC1CCCCC1Oc1ccc(C(C)(C)C)cc1", "note": "(stereo not drawn) [propargite]", "values": [{"measurement": "pest or weed control at 40 µg/mL", "setting": "[1]", "result": 18, "unit": "%"}]}, {"compound": "CS/C(C)=N\\OC(=O)N(C)SN(C)C(=O)O/N=C(\\C)SC", "note": "[thiodicarb]", "values": [{"measurement": "pest or weed control at 750 µg/mL", "setting": "[1]", "result": 0, "unit": "%"}]}, {"compound": "CC(C)(C)c1ccc(CSc2cnn(C(C)(C)C)c(=O)c2Cl)cc1", "note": "[pyridaben]", "values": [{"measurement": "pest or weed control at 200 µg/mL", "setting": "[1]", "result": 0, "unit": "%"}]}, {"compound": "CCCOc1cc(C(F)(F)F)ccc1O[C@H]1C[C@H]2CCC[C@@H](C1)N2Oc1ccc(C(F)(F)F)cn1", "note": "[acynonapyr, 3-endo-[2-propoxy-4-(trifluoromethyl)phenoxy]-9-[5-(trifluoromethyl)-2-pyridyloxy]-9-azabicyclo[3.3.1] nonan]", "values": [{"measurement": "Effectiveness Measured Value", "setting": "single component 2.0 ppm", "result": "49% and 51% and 60% and 68% and 46%"}]}, {"compound": "Cc1nn(C)c(Oc2ccccc2)c1C=NOCc1ccc(C(=O)OC(C)(C)C)cc1", "note": "[fenpyroximate]", "values": [{"measurement": "pest or weed control at 50 µg/mL", "setting": "[1]", "result": 28, "unit": "%"}]}, {"compound": "N#CCNC(=O)c1cnccc1C(F)(F)F", "note": "[flonicamid]", "values": [{"measurement": "Corrected Adult Insect Mortality Rate Measured Value", "setting": "single component 100 ppm", "result": 0, "unit": "%"}, {"measurement": "Effectiveness Measured Value", "setting": "single component 100 ppm", "result": 3, "unit": "%"}]}, {"compound": "CC(C)c1cc(Oc2ccccc2)cc(C(C)C)c1NC(=S)NC(C)(C)C", "note": "[diafenthiuron]", "values": [{"measurement": "pest or weed control at 25 µg/mL", "setting": "[1]", "result": 7, "unit": "%"}]}, {"compound": "CCc1nn(C)c(C(=O)NCc2ccc(Oc3ccc(C)cc3)cc2)c1Cl", "note": "[tolfenpyrad]", "values": [{"measurement": "pest or weed control at 150 µg/mL", "setting": "[1]", "result": 4, "unit": "%"}]}, {"compound": "COC(=O)N(C(=O)N1CO[C@@]2(C(=O)OC)Cc3cc(Cl)ccc3C2=N1)c1ccc(OC(F)(F)F)cc1", "note": "[indoxacarb]", "values": [{"measurement": "Corrected Adult Insect Mortality Rate Measured Value", "setting": "single component 50 ppm", "result": 0, "unit": "%"}, {"measurement": "Effectiveness Measured Value", "setting": "single component 50 ppm", "result": 0, "unit": "%"}]}]}
